Experimental data published in patent US9255272B2, “Use of inhibitors of leukotriene B4 receptor BLT2 for treating asthma” (Korea University Research & Business Foundation, priority 2007, dated 2016).

How the values were obtained:
[1] = system: IκB-α; experiment: IκB-α level in lung tissue (Western blot); type: in vivo, mouse; details: lung tissue extracts
Description: (§1) Female BALB/c mice and C57BL/6 mice (7 weeks old; 18-20 g) were obtained from Orientbion Inc. (Seoungnam, Korea). Sensitization and challenge were carried out as described previously with some modification (28). Briefly, female C57BL/6 mice (7 weeks old; 18-20 g) were immunized by intraperitoneal (i.p.) injection of 200 μg ovalbumin (OVA) emulsified in 2.5 mg of adjuvant aluminum hydroperoxide gel (alum) (Pierce, Rockford, Ill.). A second i.p. injection of 20 μg OVA adsorbed onto alum (2.5 mg) was administered 10 days later. After an additional 10 days, mice were exposed to an aerosol of 1% OVA in saline for 30 min daily on 3 consecutive days. On day 25, mice were finally challenged by provocation with 10% OVA aerosol. For inhibition experiments, sense or antisense BLT2 (1.6 mg/kg) was injected intravenously 24 h and then 1 h before the 10% OVA challenge. The mice were then killed on day 27 to assess asthmatic phenotypes. Antisense BLT2 oligonucleotide (5′-[…]-3′ (SEQ ID NO: 15)), sense BLT2 oligonucleotide (5′-[…]-3′ (SEQ ID NO: 16)).
Alternatively, BALB/c mice were sensitized on day 1 by i.p. injection of 20 μg OVA emulsified in 2.5 mg of alum (Pierce, Rockford, Ill.), followed by an identical booster injection administered on day 14. On days 21, 22 and 23 after initial sensitization, the mice were challenged for 30 min with an aerosol of 1% OVA using an ultrasonic nebulizer. […]

[2] = target: eosinophil membranes (LTB4 binding); details: read-out: IC50 for inhibition of the binding of radiolabeled LTB4 to eosinophil membranes; cited from earlier work
[3] = system: NF-κB; experiment: NF-κB binding activity in lung nuclear extracts (EMSA); type: in vivo, mouse
Description: as §1
A double-strand oligonucleotide corresponding to the consensus NF-κB binding motif and a mutant sequence were purchased from Santa Cruz Biotechnology Inc. (Santa Cruz, Calif.) and labeled with γ-32P-ATP using T4 polynucleotide kinase (Roche, Germany). […]

[4] = system: OVA-challenged mice; experiment: Recruitment of CD4+ and CD8+ T cells into BAL fluid (flow cytometry); type: in vivo, mouse; details: BAL fluid 12 hr after 10% OVA challenge
Text: FIGS. 8a and 8b show recruitment of T lymphocytes into airways. FIG. 8a depicts FACS analysis showing recruitment of CD4+ T cells into the BAL fluid of mice 12 hr after aerosol OVA challenge. FIG. 8b depicts FACS analysis showing recruitment of CD8+ T cells into the BAL fluid of mice 12 hr after aerosol OVA challenge. BAL fluid was collected 12 hr after 10% OVA challenge and washed with PBS. The leukocytes present were stained with FITC-conjugated anti-mouse TCR chain and PE-cy5 anti-mouse CD8a or PE rat anti-mouse CD4 after blocking with anti-FcRyantibody. Samples were then analyzed by flow cytometry to assess T lymphocyte recruitment. Data are means±SEM (n=6 in each group). *P<0.05 vs. OVA/asBLT2. For flow cytometric analysis, the cells in the BAL fluid were suspended in 50 μl of PBS containing 0.01% sodium azide and 0.1% BSA. BAL leukocytes were incubated for 30 min with 2.4G2 anti-FcγIII/II receptor (BD PharMingen) and stained for 30 min at 4° C. with FITC-conjugated anti-mouse TCR. chain (BD PharMingen) and PE-cy5 anti-mouse CD8a (BD PharMingen) or PE rat anti-mouse CD4 (BD PharMingen). Cytofluorimetry was performed with a FACS Caiibur™ (Becton Dickinson, Franklin Lakes, N.J.), and the results were analyzed with CellQuest software (Becton-Dickinson).

Which “reduction of IκB-α degradation following OVA challenge” value ([1]; LY255283 2.5 mg/kg 1 hr before 1% OVA challenge) does the source give for `CCc1cc(C(C)=O)c(O)cc1OCCCCCC(C)(C)c1nnn[nH]1` [LY255283, 1-[5-ethyl-2-hydroxy-4-[[6-methyl-6-(1H-tetrazol-5-yl)heptyl]oxy]phenyl]-ethanone, reference compound] here?
Its value is −50%.

And the IC50 [2]?
The IC50 was 260 nM.

Which “NF-κB binding activity elicited by OVA challenge” value ([3]; antisense BLT2 1.6 mg/kg i.v. 24 hr and 1 hr before provocation) does the source give for “antisense BLT2: Antisense BLT2 oligonucleotide 5′-GCTCAGTAGTGTCTCATTCC-3′ (SEQ ID NO: 15) (listed as DNA, chemistry not fully specified)” here?
The value was “attenuated”.

What about the “reduction of IκB-α degradation following OVA challenge” value ([1]; antisense BLT2 1.6 mg/kg) of the same compound?
Its value is −50%.

What about the “effect on T cell trafficking into airways” value [4] of the same compound?
Its value is “no inhibitory effect”.

For “antisense Rac: phosphorothioate 17-mer to the 5′ end of murine Rac mRNA, 5′-CACTTGATGGCCTGCAT-3′ (SEQ ID NO: 22) (listed as DNA, chemistry not fully specified)”, which “NF-κB binding activity elicited by OVA challenge” value ([3]; antisense Rac 1.25 mg/kg, tail vein) is on record?
Its value is “attenuated”.
